Assay results reported in BindingDB's records for doi:10.1023/a:1006986824213 (1999).
Where a name gives a salt, the structure may show the parent alone.

Experiments:
[1] = molecular target: T1, Alpha-2C adrenergic receptor (Rattus norvegicus, UniProt P22086)
T1 sequence (P22086 whole entry): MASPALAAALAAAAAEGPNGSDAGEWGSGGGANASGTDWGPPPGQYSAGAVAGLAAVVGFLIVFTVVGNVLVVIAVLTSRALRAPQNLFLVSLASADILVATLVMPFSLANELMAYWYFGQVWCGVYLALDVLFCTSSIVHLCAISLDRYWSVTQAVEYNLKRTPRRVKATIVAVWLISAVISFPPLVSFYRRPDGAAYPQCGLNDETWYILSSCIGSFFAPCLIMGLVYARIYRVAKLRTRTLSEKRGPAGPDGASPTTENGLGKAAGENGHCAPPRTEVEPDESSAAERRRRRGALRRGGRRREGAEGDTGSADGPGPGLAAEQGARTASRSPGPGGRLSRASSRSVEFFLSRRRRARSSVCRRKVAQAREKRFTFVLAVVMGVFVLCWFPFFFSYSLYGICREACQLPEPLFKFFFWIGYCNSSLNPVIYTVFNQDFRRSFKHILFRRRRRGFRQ

[2] = molecular target: T2, 5-hydroxytryptamine receptor 2C (Rattus norvegicus, UniProt P08909)
T2 sequence (P08909 whole entry): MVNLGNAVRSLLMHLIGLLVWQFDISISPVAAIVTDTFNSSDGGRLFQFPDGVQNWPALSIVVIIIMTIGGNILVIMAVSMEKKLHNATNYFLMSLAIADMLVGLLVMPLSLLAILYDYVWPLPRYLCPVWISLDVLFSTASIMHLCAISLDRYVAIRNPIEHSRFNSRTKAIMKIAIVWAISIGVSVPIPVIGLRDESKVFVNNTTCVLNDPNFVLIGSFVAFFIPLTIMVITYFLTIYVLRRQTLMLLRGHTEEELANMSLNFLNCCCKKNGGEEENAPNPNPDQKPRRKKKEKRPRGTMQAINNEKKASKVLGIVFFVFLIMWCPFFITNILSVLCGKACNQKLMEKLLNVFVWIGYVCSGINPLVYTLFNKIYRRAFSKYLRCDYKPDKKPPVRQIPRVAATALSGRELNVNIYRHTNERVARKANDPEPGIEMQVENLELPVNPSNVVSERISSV

[3] = molecular target: D(1A) dopamine receptor (Rattus norvegicus, UniProt P18901)
Chain of D(1A) dopamine receptor (P18901 whole entry): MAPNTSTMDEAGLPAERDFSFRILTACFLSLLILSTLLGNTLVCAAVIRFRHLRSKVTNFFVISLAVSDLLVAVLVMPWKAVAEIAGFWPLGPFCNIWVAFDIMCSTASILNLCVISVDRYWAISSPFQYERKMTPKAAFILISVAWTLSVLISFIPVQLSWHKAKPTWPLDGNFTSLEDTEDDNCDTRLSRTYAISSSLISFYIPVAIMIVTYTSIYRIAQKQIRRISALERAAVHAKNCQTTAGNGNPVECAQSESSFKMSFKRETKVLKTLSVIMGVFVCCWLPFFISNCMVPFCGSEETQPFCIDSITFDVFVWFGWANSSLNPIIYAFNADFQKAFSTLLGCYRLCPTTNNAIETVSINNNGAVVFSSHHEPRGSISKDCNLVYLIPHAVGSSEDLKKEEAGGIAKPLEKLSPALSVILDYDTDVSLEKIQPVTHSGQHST

[4] = molecular target: Beta-2 adrenergic receptor (Rattus norvegicus, UniProt P10608)
Chain of Beta-2 adrenergic receptor (P10608 whole entry): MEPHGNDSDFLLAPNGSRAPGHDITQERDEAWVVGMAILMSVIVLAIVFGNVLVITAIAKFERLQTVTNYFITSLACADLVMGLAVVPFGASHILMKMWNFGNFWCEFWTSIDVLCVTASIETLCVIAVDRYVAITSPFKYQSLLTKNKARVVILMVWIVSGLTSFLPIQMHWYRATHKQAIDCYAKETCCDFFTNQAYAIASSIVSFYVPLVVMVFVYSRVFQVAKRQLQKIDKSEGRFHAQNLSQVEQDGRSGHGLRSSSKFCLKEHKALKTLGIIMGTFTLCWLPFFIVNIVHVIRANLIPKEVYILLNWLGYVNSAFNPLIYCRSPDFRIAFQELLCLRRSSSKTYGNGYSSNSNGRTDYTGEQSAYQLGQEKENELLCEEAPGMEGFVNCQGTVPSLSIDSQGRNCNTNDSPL

[5] = molecular target: Norepinephrine transporter (Rattus norvegicus, UniProt Q9JIA2)
[6] = molecular target: T3, Alpha-1A adrenergic receptor (Rattus norvegicus, UniProt P43140)
T3 sequence (P43140 whole entry): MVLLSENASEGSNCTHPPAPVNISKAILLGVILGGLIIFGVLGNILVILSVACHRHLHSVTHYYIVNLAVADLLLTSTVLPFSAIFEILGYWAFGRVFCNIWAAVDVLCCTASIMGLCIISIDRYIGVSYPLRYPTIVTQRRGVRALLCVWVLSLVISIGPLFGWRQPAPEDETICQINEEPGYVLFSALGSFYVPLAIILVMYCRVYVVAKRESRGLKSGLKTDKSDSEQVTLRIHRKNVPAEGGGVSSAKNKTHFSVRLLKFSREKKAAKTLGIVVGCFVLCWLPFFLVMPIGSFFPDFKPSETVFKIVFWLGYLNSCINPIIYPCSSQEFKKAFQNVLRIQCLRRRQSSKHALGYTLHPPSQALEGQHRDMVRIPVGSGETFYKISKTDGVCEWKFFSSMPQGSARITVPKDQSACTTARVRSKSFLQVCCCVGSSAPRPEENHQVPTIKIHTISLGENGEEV

[7] = molecular target: T4, Muscarinic acetylcholine receptor M2 (Rattus norvegicus, UniProt P10980)
T4 sequence (P10980 whole entry): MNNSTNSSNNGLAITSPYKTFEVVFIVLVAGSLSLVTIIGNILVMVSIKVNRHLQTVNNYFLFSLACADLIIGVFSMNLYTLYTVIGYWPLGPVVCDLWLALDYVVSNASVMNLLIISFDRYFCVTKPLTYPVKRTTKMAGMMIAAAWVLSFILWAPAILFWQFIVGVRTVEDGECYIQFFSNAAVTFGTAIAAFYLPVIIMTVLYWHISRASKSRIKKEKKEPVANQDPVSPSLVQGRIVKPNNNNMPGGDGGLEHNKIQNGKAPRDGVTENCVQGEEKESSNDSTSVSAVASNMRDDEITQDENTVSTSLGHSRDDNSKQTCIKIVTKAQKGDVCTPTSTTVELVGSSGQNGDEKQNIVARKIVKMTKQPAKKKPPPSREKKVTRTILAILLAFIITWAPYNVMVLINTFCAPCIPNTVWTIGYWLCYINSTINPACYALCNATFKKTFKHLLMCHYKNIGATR

[8] = molecular target: Sodium-dependent dopamine transporter (Rattus norvegicus, UniProt P23977)
Chain of Sodium-dependent dopamine transporter (P23977 whole entry): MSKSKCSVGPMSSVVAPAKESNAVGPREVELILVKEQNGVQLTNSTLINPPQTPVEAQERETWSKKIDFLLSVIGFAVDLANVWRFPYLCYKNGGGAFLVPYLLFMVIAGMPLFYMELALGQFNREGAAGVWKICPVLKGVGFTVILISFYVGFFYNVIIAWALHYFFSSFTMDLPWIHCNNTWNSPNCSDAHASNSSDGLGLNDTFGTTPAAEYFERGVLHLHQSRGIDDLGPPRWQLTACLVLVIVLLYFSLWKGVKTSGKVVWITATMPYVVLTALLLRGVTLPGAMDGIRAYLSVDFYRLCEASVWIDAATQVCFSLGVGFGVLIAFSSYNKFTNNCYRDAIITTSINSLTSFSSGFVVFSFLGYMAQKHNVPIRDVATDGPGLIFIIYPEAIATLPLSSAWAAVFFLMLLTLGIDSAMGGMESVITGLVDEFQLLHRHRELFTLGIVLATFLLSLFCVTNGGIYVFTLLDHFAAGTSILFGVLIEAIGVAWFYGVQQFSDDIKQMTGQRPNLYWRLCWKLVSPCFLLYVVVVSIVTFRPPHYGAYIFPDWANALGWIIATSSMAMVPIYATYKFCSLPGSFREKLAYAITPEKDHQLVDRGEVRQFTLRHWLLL

[9] = molecular target: D(2) dopamine receptor (Rattus norvegicus, UniProt P61169)
Chain of D(2) dopamine receptor (P61169 whole entry): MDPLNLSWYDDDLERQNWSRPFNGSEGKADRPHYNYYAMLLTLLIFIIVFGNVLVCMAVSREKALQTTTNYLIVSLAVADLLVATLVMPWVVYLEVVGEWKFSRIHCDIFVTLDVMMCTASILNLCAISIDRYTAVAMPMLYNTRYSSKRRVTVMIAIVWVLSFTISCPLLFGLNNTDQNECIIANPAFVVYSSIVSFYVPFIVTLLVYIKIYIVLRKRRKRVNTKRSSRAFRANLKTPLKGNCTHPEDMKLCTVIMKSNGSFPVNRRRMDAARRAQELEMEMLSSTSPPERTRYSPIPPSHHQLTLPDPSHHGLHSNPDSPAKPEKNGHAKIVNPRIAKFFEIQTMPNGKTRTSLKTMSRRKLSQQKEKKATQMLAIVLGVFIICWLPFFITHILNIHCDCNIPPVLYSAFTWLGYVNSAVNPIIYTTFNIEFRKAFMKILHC

[10] = molecular target: 5-hydroxytryptamine receptor 2A (Rattus norvegicus, UniProt P14842)
Chain of 5-hydroxytryptamine receptor 2A (P14842 whole entry): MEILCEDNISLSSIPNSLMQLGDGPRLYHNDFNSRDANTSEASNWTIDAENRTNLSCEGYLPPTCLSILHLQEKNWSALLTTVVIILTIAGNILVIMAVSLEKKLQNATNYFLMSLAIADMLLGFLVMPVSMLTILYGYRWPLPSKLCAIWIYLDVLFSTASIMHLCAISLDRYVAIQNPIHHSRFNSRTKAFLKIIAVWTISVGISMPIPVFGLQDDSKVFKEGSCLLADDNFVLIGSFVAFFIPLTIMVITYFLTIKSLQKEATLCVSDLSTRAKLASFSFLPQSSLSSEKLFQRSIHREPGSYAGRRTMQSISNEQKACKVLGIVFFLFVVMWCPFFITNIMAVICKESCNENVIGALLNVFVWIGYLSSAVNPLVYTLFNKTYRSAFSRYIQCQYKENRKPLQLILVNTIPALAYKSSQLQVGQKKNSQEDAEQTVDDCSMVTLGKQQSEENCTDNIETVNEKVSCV

[11] = molecular target: T5, 5-hydroxytryptamine receptor 1A (Rattus norvegicus, UniProt P19327)
T5 sequence (P19327 whole entry): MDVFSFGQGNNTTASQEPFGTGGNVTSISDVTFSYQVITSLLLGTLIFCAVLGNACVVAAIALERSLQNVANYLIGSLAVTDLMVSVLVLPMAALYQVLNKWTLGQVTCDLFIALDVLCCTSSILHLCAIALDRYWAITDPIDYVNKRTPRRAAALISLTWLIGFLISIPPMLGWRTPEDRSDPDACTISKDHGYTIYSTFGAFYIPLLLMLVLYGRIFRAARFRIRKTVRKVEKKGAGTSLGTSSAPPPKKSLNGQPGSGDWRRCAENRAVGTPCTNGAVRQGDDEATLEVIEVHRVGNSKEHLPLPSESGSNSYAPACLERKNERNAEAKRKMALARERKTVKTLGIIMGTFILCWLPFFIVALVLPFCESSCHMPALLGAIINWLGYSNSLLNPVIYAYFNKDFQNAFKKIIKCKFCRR

[12] = molecular target: Histamine H1 receptor (Rattus norvegicus, UniProt P31390)
Chain of Histamine H1 receptor (P31390 whole entry): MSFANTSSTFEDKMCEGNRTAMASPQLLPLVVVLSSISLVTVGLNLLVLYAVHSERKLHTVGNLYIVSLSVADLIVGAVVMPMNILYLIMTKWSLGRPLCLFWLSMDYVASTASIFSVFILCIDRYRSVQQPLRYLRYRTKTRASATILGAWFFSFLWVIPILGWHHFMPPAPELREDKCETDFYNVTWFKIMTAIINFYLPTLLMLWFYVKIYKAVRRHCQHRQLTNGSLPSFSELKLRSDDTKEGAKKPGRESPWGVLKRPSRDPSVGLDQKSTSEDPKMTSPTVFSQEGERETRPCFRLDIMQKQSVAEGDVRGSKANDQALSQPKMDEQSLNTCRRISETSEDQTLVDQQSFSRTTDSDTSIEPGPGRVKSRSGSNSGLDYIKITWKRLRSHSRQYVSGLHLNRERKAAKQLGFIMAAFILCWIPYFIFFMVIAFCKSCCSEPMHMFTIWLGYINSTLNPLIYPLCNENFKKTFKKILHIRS

[13] = molecular target: Sodium-dependent serotonin transporter (Rattus norvegicus, UniProt P31652)
Chain of Sodium-dependent serotonin transporter (P31652 whole entry): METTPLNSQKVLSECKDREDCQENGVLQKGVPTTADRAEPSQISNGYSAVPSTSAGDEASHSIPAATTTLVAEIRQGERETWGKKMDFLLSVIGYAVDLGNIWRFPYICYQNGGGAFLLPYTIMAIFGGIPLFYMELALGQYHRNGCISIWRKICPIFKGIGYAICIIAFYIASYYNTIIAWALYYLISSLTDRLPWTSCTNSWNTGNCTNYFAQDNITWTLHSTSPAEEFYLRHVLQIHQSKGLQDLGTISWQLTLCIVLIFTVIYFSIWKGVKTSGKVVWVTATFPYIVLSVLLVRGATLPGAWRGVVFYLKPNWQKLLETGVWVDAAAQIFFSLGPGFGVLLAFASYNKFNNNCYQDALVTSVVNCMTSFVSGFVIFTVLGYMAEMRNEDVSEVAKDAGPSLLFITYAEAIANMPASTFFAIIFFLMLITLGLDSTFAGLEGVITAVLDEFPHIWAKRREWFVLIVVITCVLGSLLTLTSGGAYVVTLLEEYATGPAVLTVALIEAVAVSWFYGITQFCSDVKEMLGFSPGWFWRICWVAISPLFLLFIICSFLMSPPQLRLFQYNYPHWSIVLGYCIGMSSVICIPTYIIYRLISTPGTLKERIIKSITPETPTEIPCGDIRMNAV

| SMILES | Ki [1] [nM] | Ki [2] [µM] | Ki [3] [µM] | Ki [4] [µM] | Ki [5] [nM] | Ki [6] [nM] | Ki [7] [nM] | Ki [8] [µM] | Ki [9] [µM] | Ki [10] [nM] | Ki [11] [µM] | Ki [12] [nM] | Ki [13] [nM] |
| --- | --- | --- | --- | --- | --- | --- | --- | --- | --- | --- | --- | --- | --- |
| CC(NC(C)(C)C)C(=O)c1cccc(Cl)c1 (stereo unspecified) [BUPROPION HYDROCHLORIDE] | > 10000 | > 10 | > 10 | > 10 | 1400 | > 10000 | > 10000 | 0.57 | > 10 |  |  |  |  |
| CN(C)CCC=C1c2ccccc2CSc2ccccc21 [CAS_897-15-4] | 12 |  |  |  | 70 | 419 | 26 | 5.18 |  | 152 | 4 | 4 |  |
| Fc1ccc([C@@H]2CCNC[C@H]2COc2ccc3c(c2)OCO3)cc1 [PAROXETINE] | 8900 | > 10 | > 10 | > 10 |  | > 10000 | 210 |  | > 10 |  | > 10 | > 10000 |  |
| COCCCC/C(=N\OCCN)c1ccc(C(F)(F)F)cc1 [(1E)-5-methoxy-1-[4-(trifluoromethyl)phenyl]pentan-1-one O-(2-aminoethyl)oxime] | 1900 | 6.7 | > 10 | > 10 | 620 | 4800 | > 10000 | > 10 | > 10 | > 10000 | > 10 | > 10000 |  |
| CN(CCCN1c2ccccc2CCc2ccccc21)CC(=O)c1ccc(Cl)cc1 [CAS_23047-25-8] | 2100 |  | 0.5 | > 10 | 2.7 | 620 | 300 | 3.3 | 6.7 | 1200 | > 10 | 1000 | 880 |
| CCc1nn(CCCN2CCN(c3cccc(Cl)c3)CC2)c(=O)n1CCOc1ccccc1 [2-{3-[4-(3-chlorophenyl)piperazin-1-yl]propyl}-5-ethyl-4-(2-phenoxyethyl)-2,4-dihydro-3H-1,2,4-triazol-3-one] | 1200 |  | 1.5 | > 10 | 110 | 42 | > 10000 | 0.47 |  |  | 1 | 370 |  |
| CN[C@@H]1CC[C@@H](c2ccc(Cl)c(Cl)c2)c2ccccc21 [[4-(3,4-Dichloro-phenyl)-1,2,3,4-tetrahydro-naphthalen-1-yl]-methyl-amine] |  |  | 6.3 | > 10 |  | 2800 | 1100 |  | > 10 |  | > 10 | > 10000 |  |
| COc1ccc(C(CN(C)C)C2(O)CCCCC2)cc1 (stereo unspecified) [NSC_62923] | > 10000 | > 10 | > 10 |  |  |  | > 10000 |  | > 10 |  | > 10 | > 10000 |  |
| CN(C)CCC=C1c2ccccc2CCc2ccccc21 | 340 | 0.008 | 0.081 | > 10 | 24 | 69 | 8.9 | 5.3 | 0.85 | 11 | > 10 | 8.3 |  |
| CN(C)CCCC1(c2ccc(F)cc2)OCc2cc(C#N)ccc21 (stereo unspecified) [CITALOPRAM HYDROBROMIDE] | > 10000 | 0.63 | > 10 | > 10 |  |  | 5600 |  | > 10 |  | > 10 |  |  |
| CNCC[C@@H](Oc1ccc(C(F)(F)F)cc1)c1ccccc1 [Prozac] |  |  | > 10 | > 10 |  |  |  |  | > 10 |  |  | 3200 |  |
